According to patent US20250380700A1, “HERBICIDAL COMBINATIONS AND A METHOD FOR CONTROLLING UNDESIRED VEGETATION” (UPL Mauritius Limited, priority 2022, published 2025):

System: weedy Glycine max
Experiment: Post-emergence herbicidal activity trial on weedy Glycine max (observed efficacy vs Colby expected efficacy)
Format: in vivo
Experimental: Methodology: Trials were conducted to evaluate the efficacy of the combination comprising L-glufosinate ammonium and additional herbicides on weedy Glycine max.
The soil used was sandy clay loam-sand: 68.0%; silt: 8.0%; clay: 24.0%.
All treatments were in 3 replications per treatment with a spray volume of about 150 L/ha.
The expected efficacy of a combination of L-glufosinate ammonium and the other herbicides was calculated using the well-established Colby method. Any difference between the observed and “expected” efficacy could be attributed to synergy between the two compounds.
In the Colby method, the expected (or predicted) response of a combination of herbicides is calculated by taking the product of the observed response for each individual component of the combination when applied alone, divided by 100, and subtracting this value from the sum of the observed response for each component when applied alone. An unexpected enhancement in efficacy of the combination is then determined by comparing the observed response of the combination to the expected (or predicted) response as calculated from the observed response of each individual component alone. If the observed response of the combination is greater than the expected (or predicted) response, or stated conversely, if the difference between the observed and expected response is greater than zero, then the combination is said to be synergistic or unexpectedly effective (Colby, S. R., Weeds, 1967(15), p. 20-22). The Colby method requires only a single dose of each herbicide applied alone and the mixture of both doses. The formula used to calculate the expected efficacy (EE) which was compared with the observed efficacy (OE) to determine the efficacy of the present disclosure is explained hereinbelow:
The expected efficacy for a combination of two active ingredients is as follows:
The expected efficacy for a combination of three active ingredients is as follows:
wherein, • A=Observed efficacy of active ingredient A at the same concentration as used in the mixture. • B=Observed efficacy of the active ingredient B at the same concentration as used in the mixture. • C=Observed efficacy of the active ingredient C at the same concentration as used in the mixture.

O=C(O)COc1ccc(Cl)cc1Cl [2,4-D]
Observed efficacy (%) of 2,4-D (228 g a.i./ha) (Example 3, Table 4, 3 DAA): 50% | Observed efficacy (%) of 2,4-D (228 g a.i./ha) (Example 3, Table 4, 7 DAA): 60%

CP(=O)(O)CC[C@H](N)C(=O)O.N [L-glufosinate ammonium]
Observed efficacy (%) of L-glufosinate ammonium (150 g a.i./ha) (Example 1, Table 2, 3 DAA, post-emergence): 65% | Observed efficacy (%) of L-glufosinate ammonium (150 g a.i./ha) (Example 1, Table 2, 7 DAA, post-emergence): 65% | Observed efficacy (%) of L-glufosinate ammonium (150 g a.i./ha) (Example 2, Table 3, 3 DAA): 50% | Observed efficacy (%) of L-glufosinate ammonium (150 g a.i./ha) (Example 2, Table 3, 7 DAA): 65% | Observed efficacy (%) of L-glufosinate ammonium (150 g a.i./ha) (Example 3, Table 4, 3 DAA): 50% | Observed efficacy (%) of L-glufosinate ammonium (150 g a.i./ha) (Example 3, Table 4, 7 DAA): 75%

CC(C)N(C)S(=O)(=O)NC(=O)c1cc(-n2c(=O)cc(C(F)(F)F)n(C)c2=O)c(F)cc1Cl [Saflufenacil]
Observed efficacy (%) of Saflufenacil (30 g a.i./ha) (Example 1, Table 2, 3 DAA): 50% | Observed efficacy (%) of Saflufenacil (30 g a.i./ha) (Example 1, Table 2, 7 DAA): 70% | Observed efficacy (%) of Saflufenacil (30 g a.i./ha) (Example 2, Table 3, 3 DAA): 65% | Observed efficacy (%) of Saflufenacil (30 g a.i./ha) (Example 2, Table 3, 7 DAA): 70% | Observed efficacy (%) of Saflufenacil (30 g a.i./ha) (Example 3, Table 4, 3 DAA): 65% | Observed efficacy (%) of Saflufenacil (30 g a.i./ha) (Example 3, Table 4, 7 DAA): 75%

O=C(O)COc1nc(Cl)c(Cl)cc1Cl [Triclopyr]
Observed efficacy (%) of Triclopyr (228 g a.i./ha) (Example 2, Table 3, 3 DAA): 75% | Observed efficacy (%) of Triclopyr (228 g a.i./ha) (Example 2, Table 3, 7 DAA): 68%
